Where a chain is given by its changes, count along the chain named. Like-named read-outs stand apart in the source and are kept apart here.
Columns and labels:
[1] = target: GABAA receptor; design: method as in PMID 34595152; conditions: agonist; cited from earlier work
[2] = target: T1, hBGT1 E52A (Homo sapiens, UniProt P48065, E52A); design: method as in PMID 34595152; conditions: ref 12; cited from earlier work
T1 construct: host or cells: tsA201 cells (transformed HEK293), transient expression
T1 sequence (P48065 1-614 E52A): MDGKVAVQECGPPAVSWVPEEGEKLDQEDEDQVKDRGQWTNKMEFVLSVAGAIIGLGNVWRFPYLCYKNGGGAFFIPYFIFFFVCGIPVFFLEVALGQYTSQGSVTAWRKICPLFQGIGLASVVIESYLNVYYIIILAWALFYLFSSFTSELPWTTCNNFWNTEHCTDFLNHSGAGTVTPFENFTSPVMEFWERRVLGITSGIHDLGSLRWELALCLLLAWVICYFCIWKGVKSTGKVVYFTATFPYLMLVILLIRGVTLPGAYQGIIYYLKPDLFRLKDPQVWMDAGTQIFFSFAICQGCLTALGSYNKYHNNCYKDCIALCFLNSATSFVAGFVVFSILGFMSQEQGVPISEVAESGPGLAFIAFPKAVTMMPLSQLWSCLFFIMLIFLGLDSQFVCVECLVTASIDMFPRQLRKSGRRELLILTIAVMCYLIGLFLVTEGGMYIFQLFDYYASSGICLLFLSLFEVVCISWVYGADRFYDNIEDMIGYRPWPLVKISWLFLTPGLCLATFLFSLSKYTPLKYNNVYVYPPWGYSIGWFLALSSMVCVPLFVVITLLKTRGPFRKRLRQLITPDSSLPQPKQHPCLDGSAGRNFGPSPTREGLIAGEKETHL

[3] = test system: BGT1; conditions: cited from earlier work
[4] = test system: SH-SY5Y neuroblastoma cells; conditions: 24 h
Procedure: The model used mimics certain aspects of neurodegenerative diseases, where GABAergic dysfunction and neuronal death are prominent features. […] The neuroprotection studies were performed to determine the ability of compound 9 to prevent MPP^+ (1-methyl-4-phenylpyridinium) toxicity at a concentration of 1 mM, which was coincubated with compound 9 for 24 h. MPP^+ is a well-established neurotoxin that selectively damages neurons, making it a commonly used agent to model aspects of neurodegenerative conditions in vitro. It induces oxidative stress and mitochondrial dysfunction, leading to cell death. Cell viability was detected by a standard MTS assay.
Neuroprotection studies were performed according to the procedure described previously.[27] In brief, SH-SY5Y CRL-2266 (American Type Culture Collection, Manassas, VG) were seeded in microplate at a concentration of 2.5 × 10^4 cells/well in 100 μL of culture medium and cultured for 24 h at 37 °C and 5% CO2. […] Next, MPP^+ was added at a final concentration of 1 mM and the cells were placed in the incubator. After 24 h of the compound coincubation with MPP^+, the CellTiter 96 AQueous Nonradioactive Cell Proliferation Assay (MTS) was performed. The test was purchased from Promega (Madison, WI). The absorbance was measured using a microplate reader EnSpire (PerkinElmer, Waltham, MA) at 490 nm. All results were shown as mean ± SD. The statistical significances were calculated by GraphPad Prism 6.0 software.

[5] = target: T2, hBGT1 (Homo sapiens, UniProt P48065); test: [3H]GABA uptake assay, CHO cells stably expressing hBGT1; assay type: cell-based; conditions: read-out: inhibition of [3H]GABA uptake; screening concentration 100 μM; CHO cells
T2 construct: expressed in transfected cells
T2 sequence (P48065 1-614): T1 sequence (P48065 1-614 E52A) with A52E
Procedure: All selected compounds were tested for their ability to inhibit human BGT1 (hBGT1) function.
The CHO cells were placed in 96-well plates (approximately 50,000 cells/well) for about 24 h before the experiment. […] After incubation, cells were washed 3 times with 100 μL/well ice-cold assay buffer, 150 μL/well MicroScint20 (PerkinElmer) was subsequently added before the plate was shaken for at least 1 h. The radioactivity of each well of the plate was measured on a TopCount NXT scintillation counter. […] Data presented are the pooled data of at least three independent experiments with three technical replicates if not stated otherwise in figure legends. Concentration–response curves were fitted by nonlinear regression to the sigmoidal concentration–response model with GraphPad Prism v 9.0.

[6] = test system: mouse models; conditions: cited from earlier work
[7] = test system: SH-SY5Y neuroblastoma cells; test: SH-SY5Y viability, MTS assay, 72 h; assay type: cell-based, human; conditions: 1 µM, reference cytostatic drug
Description: OC(=O)[C@H]1CNCC[C@@H]1S OC(=O)CCCCCCN1C=CN=C1
OC(=O)C1CCNCC1 N[C@]12C[C@H]1[C@@H](CC2)C(O)=O
OC(=O)C1=CCNCC1 N[C@H]1C[C@@H]1CC(O)=O
O[C@@H]1CNCC[C@H]1C(O)=O N[C@@H]1C[C@@H]1CC(O)=O
OC(=O)CCCC1=NC=CN1 N[C@H]1C[C@H]1CC(O)=O
OC(=O)\C=C\C1=NC=CN1 NC[C@H]1C[C@H]1C(O)=O
OC(=O)\C=C\C1=CNC=N1 NC[C@@H]1C[C@@H]1C(O)=O
OC(=O)\C=C\C1=CN=CN1 NC[C@@H]1C[C@H]1C(O)=O
OC(=O)CCC1=CNC=N1 NC[C@H]1C[C@@H]1C(O)=O
OC(=O)CCC1=CN=CN1 NC1=CC=C(C=N1)C(O)=O
OC(=O)CCN1C=CN=C1 NC1=NC=C(C=N1)C(O)=O
OC(=O)CCCC1=NC=CN1 NC(=N)N1CCC(CC1)C(O)=O
S2. IC50 determination at GAT3 stable GAT3-CHO, compound 9
Figure S1. IC 50 determination for compound 9. Data represent one of three independent experiments, each performed in three technical replicates.
S3. […]
The influence of compound 9 on viability of SH-SY5Y neuroblastoma cells was determined using Aqueous Non-Radioactive Cell Proliferation Assay. […] Upon adding MTS and following 2h incubation, cell viability was calculated and […]
The effect of compound 9 on viability and proliferation of SH-SY5Y was determined with CellTiter 96® Aqueous Non-Radioactive Cell Proliferation Assay (MTS, Promega, Madison, WI, USA). […] Next MTS was added in fresh medium and after 2h of incubation the absorbance was measured at 490 nm using a microplate reader EnSpire (PerkinElmer, Waltham, MA USA). All results were shown as mean ± SD calculated from two independent experiments. […]

[8] = test system: normal human astrocytes (NHA); test: Confocal imaging of astrocyte morphology after incubation in PBS (non-GABA conditions); assay type: cell-based; conditions: 500 μM GABA with 500 μM compound 9 in PBS; 72 h
Procedure: To this end, we tested whether blocking the transport of GABA under experimental non-GABA extracellular conditions may impair the homeostasis of these cells. […] Afterward, the cells were stained to visualize actin filaments using confocal microscopy. […] Nevertheless, further kinetic studies are necessary to verify this hypothesis.
NHA was grown on a coverslip in a 35 mm culture dish. After treatment, the cells were fixed (4% paraformaldehyde) and permeabilized (0.1% Triton X-100). Then, the samples were stained with Phalloidin-Atto 565 (Sigma-Aldrich, Inc.) according to the manufacturer’s protocol. Laser confocal microscope Nikon Eclipse Ti-E A1R-Si and Nikon NIS Elements AR software were used for cell imaging.

With `N[C@@]12CC[C@H](C(=O)O)[C@@H]1C2` [bicyclo-GABA, (1S,2S,5R)-5-aminobicyclo[3.1.0]hexane-2-carboxylic acid] as the molecule, how does the EC50 [1] read?
Its EC50 is 5.1 µM.

And the “change in activity on substitution of Glu52 with alanine” value [2]?
The value was “drastic increase in activity”.

And the IC50 ([3]; ref 11)?
The IC50 was 590 nM.

And the IC50 ([3]; ref 12)?
Its IC50 is 1500 nM.

Which “viability of SH-SY5Y cells” value ([4]; neurotoxin 1 mM) does the source give for `C[n+]1ccc(-c2ccccc2)cc1` [MPP^+, 1-methyl-4-phenylpyridinium, reference compound] here?
Its value is “significantly reduced the viability”.

With `NCc1cc(C(=O)O)[nH]n1` [Compound 11] as the molecule, how does the inhibition at 100 µM [5] read?
Its inhibition at 100 µM is 26%.

With `Cc1ccsc1C(=CCCN(C)C1CCCc2o[nH]c(=O)c21)c1sccc1C` (stereo not drawn) [EF1502] as the molecule, how does the anticonvulsant properties ([6]; ref 13) read?
The anticonvulsant properties was “anticonvulsant properties”.

What about the “anticonvulsant effect when coadministered with tiagabine” value ([6]; ref 14) of the same molecule?
The value was “synergistic effect”.

For `O=C(O)CC1CNCCO1` (stereo not drawn) [Compound 3], which inhibition at 100 µM [5] is on record?
The inhibition at 100 µM was 40%.

With `COc1cccc2c1C(=O)c1c(O)c3c(c(O)c1C2=O)C[C@@](O)(C(=O)CO)C[C@@H]3O[C@H]1C[C@H](N)[C@H](O)[C@H](C)O1` [doxorubicin, reference compound] as the molecule, how does the “impact on SH-SY5Y viability” value [7] read?
The value was “significantly decreased SH-SY5Y viability”.

What does the source list for `NCCCC(=O)O` [GABA, γ-Aminobutyric acid, reference compound]?
effect on compound 9-induced morphological changes of astrocytes [8]: prevented these changes; cell viability compared to MPP+ alone ([4]; GABA 10 μM, positive control, 1 mM MPP+): significantly increased cell viability

Source: PMC11587516 (ACS Chemical Neuroscience, 2024)
